Experimental data reported in article PMC10120551, “Novel Glu-based pyrazolo[3,4-d]pyrimidine analogues: design, synthesis and biological evaluation as DHFR and TS dual inhibitors” (Journal of Enzyme Inhibition and Medicinal Chemistry, 2023).

Columns and labels:
IGROV1 = conditions: IGROV1, Ovarian cancer; five-dose 0.01–100 µM
Colon cancer subpanel = test: NCI five-dose screen, subpanel MG-MID; type: cell-based, human
Description: (Figures S53–S56 in Supporting Information). This assay evaluates GI50, TGI, and LC50 parameters, as cited in Table 1. Their values correspondingly represent the GI level, cytostatic impact, and cytotoxicity parameter. Furthermore, based on the GI50 values, the mean graph midpoints (MG-MID) for both full NCI 59 cell panel and subpanel cancer cell lines were evaluated, affording a median potency parameter for the examined compound 6i, as depicted in Table 2.
Moreover, the selectivity index (SI) of the most efficient analogue 6i was calculated from the division of full-panel MG-MID by subpanel MG-MID. A value greater than 6 implies high selectivity, whereas a ratio from 3 to 6 denotes moderate selectivity. Otherwise, the compound is referred to as non-selective.[24] […] Therefore, the outstanding anti-cancer profile of compound 6i against the herein examined NCI-59 cell panels inspired us to explore its mechanism of action further.
(§1) The designed analogues were submitted to NCI-Chemotherapeutic Agents Repository (MD, USA) for screening on a panel of 59 cancer cell lines. All compounds were initially examined at 10 µM concentration (Single-Dose Screen), and then the most efficient analogue 6i was screened further at 0.01–100 µM (Five-Dose Screen). The screening procedures were performed according to NCI-Drug Evaluation Branch protocol using SRB protein assay, as described previously[21]^,[66]. The experimental procedures were detailed in the Supporting Information.

DU-145 = conditions: DU-145, Prostate cancer; five-dose 0.01–100 µM
KM12 = test: cells; conditions: Homo sapiens
SR = conditions: Leukaemia, five-dose 0.01–100 µM
SF-295 = conditions: SF-295, CNS cancer; five-dose 0.01–100 µM
CAKI-1 = test: cells; conditions: Homo sapiens
EKVX = test: cells; conditions: Homo sapiens
RXF 393 = test: cells; conditions: Homo sapiens
UO-31 = test: cells; conditions: Homo sapiens
MOLT-4 = test: cells; conditions: Homo sapiens
[1] = test system: full panel of 59 cancer cells; test: NCI one-dose screen (SRB), full panel; type: cell-based, human; conditions: Homo sapiens; mean over full panel of 59 cell lines; 10 µM single dose; read-out: MGI% (mean growth inhibition percentage)
Description: The growth percentage (G%) and cell viability of the herein target compounds 6a–l, 7a,b, and 9a–c have been screened towards a full panel of 59 cancer cells at NCI’s Developmental Therapeutics Program (NCI-DTP, MD, USA)[21]. The submitted analogues were initially examined for preliminary in vitro anticancer activity using sulforhodamine B (SRB) assay at 10 µM as a single dose to evaluate cell growth and viability according to the procedure of Drug Evaluation Branch[22]^,[23].
Different types of tumours – colon, NSCLC, leukaemia, CNS, renal, breast, ovarian, melanoma, and prostate cancers – were investigated as a full panel of 59 cell lines, and the attained results are cited in Figures S1–S17 (see Supplementary Material) where the value recorded is the growth relative to that of both the negative control and zero-time number of cells in which both growth inhibition (GI%; 0–100%) and lethality (L%; 0–100%) percentages can be identified. The growth inhibition means percentages (MGI%) for the examined target analogues towards the different treated 59 cancer cells were presented in Figure 2.
as §1

SF-539 [2] = test: cells; conditions: Homo sapiens
LOX IMVI [3] = conditions: Melanoma, five-dose 0.01–100 µM
OVCAR-5 = test: cells; conditions: Homo sapiens
HCT-116 = conditions: HCT-116, Colon cancer; five-dose 0.01–100 µM
HT29 = conditions: HT29, Colon cancer; five-dose 0.01–100 µM
HCC-2998 = test: cells; conditions: Homo sapiens
A549/ATCC = test: cells; conditions: Homo sapiens
LOX IMVI [4] = test: cells; conditions: Homo sapiens
SN12C = test: cells; conditions: Homo sapiens
NCI-H23 = test: cells; conditions: Homo sapiens
NCI-H460 = test: cells; conditions: Homo sapiens
SF-539 [5] = conditions: SF-539, CNS cancer; five-dose 0.01–100 µM
PC-3 = test: cells; conditions: Homo sapiens

How did the TGI (IGROV1) turn out when `CCOC(=O)CC[C@H](NC(=O)c1ccc(NC(=O)Cn2cnc3c(c(C)nn3-c3ccc(Br)cc3)c2=O)cc1)C(=O)OCC` [Compound 6i] was run?
The TGI was 74.2 µM.

What about the MG-MID (Colon cancer subpanel; Colon cancer subpanel, based on GI50) of the same molecule?
The MG-MID was 18.34 µM.

And the Selectivity index (Colon cancer subpanel; Colon cancer, full-panel MG-MID / subpanel MG-MID)?
Its Selectivity index is 1.11.

What about the TGI (DU-145) of the same molecule?
The TGI was 28.8 µM.

What about the GI50 (KM12; KM12) of the same molecule?
Its GI50 is 16.1 µM.

What about the CC50 (KM12; KM12, read-out: LC50) of the same molecule?
Its CC50 is over 100 µM.

And the TGI (SR)?
The TGI was over 100 µM.

And the TGI (SF-295)?
Its TGI is 31.9 µM.

And the GI50 (CAKI-1; CAKI-1)?
The GI50 was 10.4 µM.

What about the CC50 (CAKI-1; CAKI-1, read-out: LC50) of the same molecule?
The CC50 was 47 µM.

What about the GI50 (EKVX) of the same molecule?
Its GI50 is 10.4 µM.

And the CC50 (EKVX; read-out: LC50)?
Its CC50 is 71.7 µM.

And the GI50 (RXF 393; RXF 393)?
The GI50 was 15.9 µM.

And the CC50 (RXF 393; RXF 393, read-out: LC50)?
The CC50 was over 100 µM.

And the GI50 (UO-31; UO-31)?
Its GI50 is 18.1 µM.

And the CC50 (UO-31; UO-31, read-out: LC50)?
The CC50 was over 100 µM.

What about the GI50 (MOLT-4; MOLT-4) of the same molecule?
The GI50 was over 100 µM.

And the CC50 (MOLT-4; MOLT-4, read-out: LC50)?
Its CC50 is over 100 µM.

What about the inhibition at 10 µM [1] of the same molecule?
Its inhibition at 10 µM is 62%.

And the GI50 (SF-539 [2]; SF-539)?
The GI50 was 14.8 µM.

And the CC50 (SF-539 [2]; SF-539, read-out: LC50)?
The CC50 was 73.6 µM.

And the TGI (LOX IMVI [3])?
The TGI was 20.6 µM.

And the GI50 (OVCAR-5; OVCAR-5)?
Its GI50 is 20.2 µM.

And the CC50 (OVCAR-5; OVCAR-5, read-out: LC50)?
The CC50 was over 100 µM.

And the TGI (HCT-116)?
The TGI was over 100 µM.

What about the TGI (HT29) of the same molecule?
Its TGI is 71.7 µM.

And the GI50 (HCC-2998; HCC 2998)?
The GI50 was 35.1 µM.

What about the CC50 (HCC-2998; HCC 2998, read-out: LC50) of the same molecule?
The CC50 was over 100 µM.

And the GI50 (A549/ATCC; A549)?
Its GI50 is 9.81 µM.

And the CC50 (A549/ATCC; A549, read-out: LC50)?
Its CC50 is over 100 µM.

What about the GI50 (LOX IMVI [4]) of the same molecule?
The GI50 was 5.3 µM.

And the CC50 (LOX IMVI [4]; read-out: LC50)?
The CC50 was 58.4 µM.

What about the TGI (full NCI 59 cell panel; HL-60(TB), CCRF-CEM, MOLT-4, K-562, SR, RPMI-8226, HCC-2998, HCT-15, HCT-116, KM12, U250, M14, UACC-257, OVCAR-8, SN12C, 786-0, T-47D, BT-549) of the same molecule?
Its TGI is “more than 100 µM”.

And the “Full panel MG-MID” value (full NCI 59 cell panel; mean graph midpoint based on GI50, full NCI 59 cell panel)?
The value was 20.45 µM.

And the GI50 (SN12C)?
Its GI50 is 29.2 µM.

And the CC50 (SN12C; read-out: LC50)?
The CC50 was over 100 µM.

What about the GI50 (NCI-H23; NCI-H23) of the same molecule?
Its GI50 is 7.64 µM.

What about the CC50 (NCI-H23; NCI-H23, read-out: LC50) of the same molecule?
Its CC50 is 82.1 µM.

What about the GI50 (NCI-H460; NCI-H460) of the same molecule?
The GI50 was 13.7 µM.

What about the CC50 (NCI-H460; NCI-H460, read-out: LC50) of the same molecule?
Its CC50 is 86.9 µM.

What about the TGI (SF-539 [5]) of the same molecule?
Its TGI is 33.0 µM.

What about the GI50 (PC-3; PC-3) of the same molecule?
Its GI50 is 5.79 µM.

And the CC50 (PC-3; PC-3, read-out: LC50)?
The CC50 was 47.7 µM.
